Reference: patent publication US20100093612A1, “INTEGRIN TARGETED CYCLOPEPTIDE LIGANDS, THEIR PREPARATION AND USE” (priority 2007, published 2010)

Columns and labels:
αvβ3 integrin receptor = biological target: T1, αvβ3 integrin receptor (Homo sapiens, UniProt P05106+P06756); assay: Solid-phase receptor-binding assay, competition with [125I]-echistatin, αvβ3; settings: IC50 in the receptor high-affinity state; IC50±SD, average of three or more independent determinations; 0.05 nM [125I]echistatin
T1 construct: purchased Chemicon International Inc., Temecula, Calif
Procedure: (§1) Integrin-coated 96-well plates were incubated with the ligand in the presence of serially diluted competing compounds.
(§2) Solid-Phase Receptor-Binding Assay (General Procedure). The receptor binding assays were performed as described previously (Kumar, C. C.; et al. J. Pharmacol. Exp. Ther. 1997, 283, 843). Purified αvβ3 and αvβ5 receptors (Chemicon International Inc., Temecula, Calif.) were diluted to 500 ng/mL and 1000 ng/mL, respectively, in coating buffer [20 mM Tris-HCl (pH 7.4), 150 mM NaCl, 2 mM CaCl2, 1 mM MgCl2 and 1 mM MnCl2]. An aliquot of diluted receptors (100 μL/well) was added to 96-well microtiter plates and incubated overnight at 4° C. Coating solution was removed and 200 μL of blocking solution (coating buffer plus 1% BSA) were added to the wells and incubated for additional 2 h at room temperature. After incubation, the plates were rinsed three times with 200 μL of blocking-binding solution and incubated for 3 h at room temperature with 0.05 nM and 0.1 nM [^125I]Echistatin (Amersham Pharmacia) for αvβ3 and αvβ5 receptor binding assays, respectively. After incubation, the plates were sealed and counted in the γ-counter (Packard).

αvβ5 integrin receptor = biological target: T2, αvβ5 integrin receptor (Homo sapiens, UniProt P06756+P18084); assay: Solid-phase receptor-binding assay, competition with [125I]-echistatin, αvβ5; settings: IC50±SD, average of three or more independent determinations, 0.1 nM [125I]echistatin
T2 construct: purchased Chemicon International Inc., Temecula, Calif
Procedure: as §1, §2

[1] = no high-affinity-state footnote

| Compound | IC50 (αvβ3 integrin receptor) | IC50 (αvβ5 integrin receptor; [1]) | IC50 (αvβ5 integrin receptor; IC50 in the receptor high-affinity state) |
| --- | --- | --- | --- |
| N=C(N)NCCC[C@@H]1NC(=O)[C@@H]2C[C@@H](CN2C(=O)c2ccccc2)NC(=O)[C@H](CC(=O)O)NC(=O)CNC1=O [(If), c[-Arg-Gly-Asp-AMPRO2-]] | 0.16 ± 0.03 nM | 86.6 ± 5.7 nM | – |
| CCC(=O)N1C[C@@H]2C[C@H]1C(=O)N[C@@H](CCCNC(=N)N)C(=O)NCC(=O)N[C@@H](CC(=O)O)C(=O)N2 [(Ih), c[Arg-Gly-Asp-AMPRO4-]] | 0.03 ± 0.01 nM | 94 ± 13 nM | – |
| N=C(N)NCCC[C@@H]1NC(=O)[C@@H]2C[C@H](CN2C(=O)c2ccccc2)NC(=O)[C@H](CC(=O)O)NC(=O)CNC1=O [(Ii), c[-Arg-Gly-Asp-AMPRO5-]] | 0.91 ± 0.4 nM | 89.2 ± 5.4 nM | – |
| CCCCCCCN1C[C@@H]2C[C@H]1C(=O)N[C@@H](CCCNC(=N)N)C(=O)NCC(=O)N[C@@H](CC(=O)O)C(=O)N2 [(Ip), c[-Arg-Gly-Asp-AMPRO15-]] | 0.08 ± 0.02 nM | – | 0.88 ± 0.23 nM |
